Test results published in patent US8952054B2, “Small molecule inhibitors of MUC1 and methods of identifying the same” (Dana-Farber Cancer Institute, Inc., priority 2010, dated 2015).
pKd: −log10 of the molar value.

How the values were obtained:
[1] = tested on: MUC1-expressing cancer cells; test: Secondary screen against MUC1-expressing cancer cells in vitro; format: cell-based; details: legend: ZR-75-1 breast carcinoma cells, 2 days, anti-MUC1-C immunoblot
Description: ZR-75-1 breast carcinoma cells were treated with […] Kaempterol for 2 days. Total cell lysates were then analyzed by immunoblotting with anti-MUC1-C antibody (FIG. 17A) or with anti-Actin antibodies (FIG. 17B).
Initial screens were performed in the presence of compounds at a concentration of 100 μM.

[2] = cited from earlier work
hyperammonemia = details: oral administration, ammonium chloride-treated rats; cited from earlier work
MUC1-CD = target: T1, MUC1-CD (Homo sapiens, UniProt P15941); test: Plate-based MUC1-CD dimerization inhibition assay (primary screening); format: biochemical; details: library of Table 1
T1 construct: the 72 aa cytoplasmic domain (CD); His; made in house
T1 sequence (P15941 1184-1255 limits assumed): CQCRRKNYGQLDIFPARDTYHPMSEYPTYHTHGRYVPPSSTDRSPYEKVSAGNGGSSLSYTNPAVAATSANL
Description: FIG. 6—Schematic Illustration of Primary HTS Screening Assay for MUC1-CD Dimerization. MUC1-CD protein was coated on a 96 well plate and then incubated with Biotinylated MUC1-CD that binds to non-biotinylated MUC1-CD protein by dimer formation. Bound biotinylated MUC1-CD protein was detected by incubation with Streptavin-HRP+peroxidase substrate system.
FIGS. 11A-C—Identification of MUC1-CD dimerization inhibitors in a small molecule screen. (FIG. 11A) Schematic representation of the MUC1-C subunit with the 58 amino acid (aa) extracellular domain (ECD), the 28 aa transmembrane domain (TD) and the 72 aa cytoplasmic domain (CD; SEQ ID NO: 1). The sequence of MUC1-CD is included with highlighting of the CQC dimerization motif. (FIG. 11B) The assay for identification of MUC1-CD dimerization inhibitors is depicted with the following steps: (i) coating of MUC1-CD onto a microplate, (ii) adding soluble biotinylated MUC1-C and […] compound, and (iii) addition of streptavidin-HRP and then peroxide with conversion by HRP to a blue color. The signal is measured by EnVision and proportional to the amount of bound biotin-labeled MUC1-CD.
FIGS. 12A-D—Apigenin is an inhibitor of MUC1-CD dimerization in vitro and in cells. (FIG. 12A) Structures of apigenin and its analogue baicalein. Using the in vitro screening assay, dimerization of MUC1-CD was assessed in the presence of 100 μM apigenin or 100 μM baicalein each dissolved in 0.1% DMSO. The results (mean±SD of 3 determinations) are expressed as percentage of control dimerization in the presence of DMSO alone. (FIG. 12B) MUC1-CD dimerization was assessed in the presence of the indicated concentrations of apigenin in the in vitro screening assay. […] (FIG. 12C) Soluble MUC1-CD was incubated in the presence of 1% DMSO, 1 mM apigenin or 1 mM baicalein for 1 h at room temperature. Monomers and dimmers were assessed by electrophoresis in a non-reducing gel and immunoblotting with anti-MUC1-C. (FIG. 12D) 293 cells were transiently transfected to express an empty vector or GFP-MUC1-CD and Flag-MUC1-CD. At six hours after transfection, the cells were left untreated, and treated with 75 μM apigenin or baicalein for 3 days. Whole-cell lysates were precipitated with anti-Flag, and the precipitates were immunoblotted with the indicated antibodies.
Multi-well (96- or 384-well) plates are coated with non-biotinylated MUC1-CD, and biotinylated MUC1-CD is added to the plates to initiate MUC1-CD dimerization or oligomerization. A luminescent substrate for biotin binding is added to the plate, followed by washing. Resulting fluorescence is detected by luminescence detection at absorbance 405 nm. A complete schematic illustration of this assay is described in […]. Test compounds are added at multiple concentrations to the plates and, following incubation and washing, the plates are read for luminescent detection. The formation of MUC1-CD dimers is detected.
To develop a HTS assay for compounds that inhibit MUC1-CD dimerization, the inventors generated purified His-tagged MUC1-CD protein. They also generated a biotin-labeled His-tagged MUC1-CD protein using a standard biotinylation kit. Biotinylated and non-biotinylated proteins were purified through Nickel columns.
The inventors coated 96- or 384-well plates with non-biotinylated MUC1-CD protein and added biotinylated MUC1-CD protein to the plates to initiate MUC1-CD/MUC1-CD dimerization or oligomerization. They then added a substrate to the plate which will bind to the biotinylated protein (only at the dimer or oligomer state) and the resultant fluorescence was detected by luminescence detection at absorbance 405 nm. A complete schematic illustration of this assay is described in FIG. 6.
Individual compounds from the chemical libraries were then added at multiple concentrations (0.01 μM to 100 μM) to the plates and following incubation and washing, the plates were read by luminescence detection at […]. […]

xanthine oxidase = xanthine oxidase (Homo sapiens, UniProt P47989); details: cited from earlier work
Sequence of xanthine oxidase (P47989 whole entry, species assumed): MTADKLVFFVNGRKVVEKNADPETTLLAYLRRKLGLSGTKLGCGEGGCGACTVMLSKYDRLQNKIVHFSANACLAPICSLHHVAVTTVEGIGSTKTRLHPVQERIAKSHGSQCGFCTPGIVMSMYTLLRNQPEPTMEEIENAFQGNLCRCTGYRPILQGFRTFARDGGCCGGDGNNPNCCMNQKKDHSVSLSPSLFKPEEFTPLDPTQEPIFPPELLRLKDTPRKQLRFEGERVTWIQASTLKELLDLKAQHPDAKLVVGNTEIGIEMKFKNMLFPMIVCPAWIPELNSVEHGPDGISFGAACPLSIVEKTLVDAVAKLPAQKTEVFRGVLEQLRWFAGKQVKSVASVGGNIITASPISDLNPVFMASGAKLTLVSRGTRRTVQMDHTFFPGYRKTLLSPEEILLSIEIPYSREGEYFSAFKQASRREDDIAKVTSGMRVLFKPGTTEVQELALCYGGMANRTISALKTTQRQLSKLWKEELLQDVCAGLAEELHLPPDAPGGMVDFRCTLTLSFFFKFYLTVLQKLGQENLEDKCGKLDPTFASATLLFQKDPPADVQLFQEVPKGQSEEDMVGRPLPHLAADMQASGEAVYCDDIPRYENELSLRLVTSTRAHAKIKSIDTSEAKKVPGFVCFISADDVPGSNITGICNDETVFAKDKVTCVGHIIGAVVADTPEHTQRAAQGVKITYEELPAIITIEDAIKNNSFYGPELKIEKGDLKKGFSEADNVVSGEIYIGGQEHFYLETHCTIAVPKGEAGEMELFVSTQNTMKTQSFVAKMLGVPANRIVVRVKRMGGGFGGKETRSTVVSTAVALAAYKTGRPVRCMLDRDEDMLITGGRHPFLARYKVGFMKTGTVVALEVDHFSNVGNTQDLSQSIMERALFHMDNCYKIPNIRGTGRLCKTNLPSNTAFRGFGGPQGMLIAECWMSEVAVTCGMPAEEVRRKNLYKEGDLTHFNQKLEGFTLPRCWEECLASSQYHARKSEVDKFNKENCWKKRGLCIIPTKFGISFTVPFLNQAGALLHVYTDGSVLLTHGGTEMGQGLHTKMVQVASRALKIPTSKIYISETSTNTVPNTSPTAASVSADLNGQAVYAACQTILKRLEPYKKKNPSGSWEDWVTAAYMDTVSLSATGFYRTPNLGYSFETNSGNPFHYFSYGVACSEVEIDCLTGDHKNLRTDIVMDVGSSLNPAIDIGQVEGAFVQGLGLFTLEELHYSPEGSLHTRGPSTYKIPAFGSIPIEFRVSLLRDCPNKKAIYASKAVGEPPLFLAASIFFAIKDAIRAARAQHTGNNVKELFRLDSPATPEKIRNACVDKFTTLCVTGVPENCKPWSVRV

[3] = target: T2, aryl hydrocarbon receptor (AHR) (Rattus norvegicus, UniProt P41738); details: rat liver cytosol, added just before TCDD; cited from earlier work
T2 construct: Addition of PD98059 to rat liver cytosol just before the addition of TCDD; from tissue; host or cells: rat liver cytosol
T2 sequence (P41738 10-853): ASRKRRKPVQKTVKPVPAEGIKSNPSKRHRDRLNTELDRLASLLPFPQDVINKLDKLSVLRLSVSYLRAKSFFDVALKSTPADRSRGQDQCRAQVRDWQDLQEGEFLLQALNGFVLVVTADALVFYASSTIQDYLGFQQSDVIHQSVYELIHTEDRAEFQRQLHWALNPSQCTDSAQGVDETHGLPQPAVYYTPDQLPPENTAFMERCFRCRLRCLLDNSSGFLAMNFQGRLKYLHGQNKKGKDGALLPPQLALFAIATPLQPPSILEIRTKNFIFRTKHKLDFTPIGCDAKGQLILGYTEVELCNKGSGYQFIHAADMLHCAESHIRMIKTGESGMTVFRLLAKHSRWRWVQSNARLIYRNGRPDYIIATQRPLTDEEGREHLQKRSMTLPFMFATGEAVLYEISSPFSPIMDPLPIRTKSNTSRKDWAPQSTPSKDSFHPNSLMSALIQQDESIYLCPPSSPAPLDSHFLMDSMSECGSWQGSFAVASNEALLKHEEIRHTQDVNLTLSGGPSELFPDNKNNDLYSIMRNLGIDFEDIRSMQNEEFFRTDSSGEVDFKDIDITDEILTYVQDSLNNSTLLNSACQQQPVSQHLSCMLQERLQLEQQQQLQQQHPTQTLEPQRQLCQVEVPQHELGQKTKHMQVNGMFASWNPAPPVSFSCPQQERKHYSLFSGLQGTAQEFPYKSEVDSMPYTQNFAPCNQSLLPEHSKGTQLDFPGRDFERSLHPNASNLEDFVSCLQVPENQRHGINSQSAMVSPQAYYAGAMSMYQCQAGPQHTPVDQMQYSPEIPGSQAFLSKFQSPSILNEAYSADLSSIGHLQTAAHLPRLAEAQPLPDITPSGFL

[4] = tested on: mitogen-activated protein kinase kinase (MEK); details: cited from earlier work
His-MUC1-CD = target: T3, His-MUC1-CD (Homo sapiens, UniProt P15941); details: BIAcore analysis, Leng et al., 2007; read-out: dissociation constant (Kd) of MUC1-CD dimers; cited from earlier work
T3 construct: made in house
T3 sequence (P15941 1184-1255): T1 sequence (P15941 1184-1255 limits assumed)

severe sepsis = details: from about 31% without; cited from earlier work

In the case of `O=c1c(O)c(-c2ccc(O)cc2)oc2cc(O)cc(O)c12` [Kaempferol], the “inhibition (FIGS. 17A-B)” value [1] is given as “showed inhibition”, the “solubility in organic solvents” value ([2]; hot ethanol and diethyl ether) is given as “soluble in hot ethanol and diethyl ether” and the solubility in water ([2]; water) is given as “slightly soluble in water”.

For `O=c1c(O)c(-c2ccc(O)cc2O)oc2cc(O)cc(O)c12` [Morin, 3,5,7,2′,4′-pentahydroxyflavone], the “ammonia, urea, lipid peroxidation” value (hyperammonemia) is given as “significant reduction in ammonia, urea, lipid peroxidation” and the “initial library screen result” value (MUC1-CD) is given as “MUC1 dimerization inhibitory compounds”.

In the case of `O=c1c(O)c(-c2ccc(O)c(O)c2)oc2cc(O)ccc12` [Fisetin], the “inhibition of xanthine oxidase” value (xanthine oxidase) is listed as “inhibit xanthine oxidase” and the “initial library screen result” value (MUC1-CD) is listed as “MUC1 dimerization inhibitory compounds”.

For `COc1cccc(-c2cc(=O)c3ccccc3o2)c1N` [PD98059, 2-(2′-amino-3′-methoxyphenyl)-oxanaphthalen-4-one], the “TCDD binding to AHR” value [3] is given as “suppressed TCDD binding”, the “initial library screen result” value (MUC1-CD) is given as “MUC1 dimerization inhibitory compounds” and the “inhibition of MEK” value [4] is given as “potent inhibitor”.

In the case of “MUC1-CD: 72-amino acid MUC1 cytoplasmic domain (SEQ ID NO:1)”, the pKd (His-MUC1-CD) is given as 7.48.

For drotrecogin alfa, the mortality (severe sepsis) is given as “about 25%”.
